# ChEMBL document CHEMBL4184201, “Inhibition of protein tyrosine phosphatase 1B (PTP1B) and α-glucosidase by xanthones from Cratoxylum cochinchinense, and their kinetic characterization” (Bioorg Med Chem, 2018)
# The source made the active and inactive calls. The calls are words filed in the database; no cut-off is given here.
# Key:
# Alpha glucosidase [1] = molecular target: T1, Alpha glucosidase (Homo sapiens, UniProt O43451+P10253+P14410+Q2M2H8); assay: Inhibition of alpha-glucosidase (unknown origin) using PNP-G as substrate by Dixon plot analysis; type: protein assay
# Alpha glucosidase [2] = molecular target: T1, Alpha glucosidase; assay: Inhibition of alpha-glucosidase (unknown origin) using PNP-G as substrate measured for 15 mins by spectrophotometry; type: protein assay
# [3] = molecular target: T2, Tyrosine-protein phosphatase non-receptor type 1 (Homo sapiens) (UniProt P18031); assay: Competitive inhibition of recombinant human PTP1B (1 to 322 residues) expressed in Escherichia coli using P-NPP as substrate after 10 mins by Lineweaver-Burk plot analysis
# T2 sequence (whole entry): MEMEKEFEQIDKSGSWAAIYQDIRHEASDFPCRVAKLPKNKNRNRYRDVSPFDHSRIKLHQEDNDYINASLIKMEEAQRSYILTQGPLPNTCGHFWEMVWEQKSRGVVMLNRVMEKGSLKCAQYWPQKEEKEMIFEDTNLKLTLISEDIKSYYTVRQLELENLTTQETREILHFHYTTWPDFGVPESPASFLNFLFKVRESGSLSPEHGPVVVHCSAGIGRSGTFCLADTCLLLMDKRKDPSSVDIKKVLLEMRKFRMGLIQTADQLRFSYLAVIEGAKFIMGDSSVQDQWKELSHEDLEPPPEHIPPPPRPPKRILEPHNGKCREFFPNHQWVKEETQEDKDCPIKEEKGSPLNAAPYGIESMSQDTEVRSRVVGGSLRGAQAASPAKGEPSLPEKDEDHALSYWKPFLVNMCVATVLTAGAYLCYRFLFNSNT
# [4] = molecular target: T3, Tyrosine-protein phosphatase non-receptor type 1 (Homo sapiens, UniProt P18031); assay: Inhibition of recombinant human PTP1B (1 to 322 residues) expressed in Escherichia coli using P-NPP as substrate after 10 mins by Dixon plot analysis
# T3 sequence (P18031 whole entry): T2 sequence (whole entry)
# Alpha glucosidase [5] = molecular target: T1, Alpha glucosidase; assay: Mixed type inhibition of alpha-glucosidase (unknown origin) using PNP-G as substrate by Lineweaver-Burk plot analysis; type: protein assay
# [6] = molecular target: T3, Tyrosine-protein phosphatase non-receptor type 1; assay: Inhibition of recombinant human PTP1B (1 to 322 residues) expressed in Escherichia coli using P-NPP as substrate after 10 mins by spectrophotometry
# Alpha glucosidase [7] = molecular target: T1, Alpha glucosidase; assay: Mixed type inhibition of alpha-glucosidase (unknown origin) assessed as enzyme-substrate-inhibitor complex formation using PNP-G as substrate by Lineweaver-Burk plot analysis; type: protein assay
# [8] = molecular target: T3, Tyrosine-protein phosphatase non-receptor type 1; assay: Time dependent inhibition of recombinant human PTP1B (1 to 322 residues) expressed in Escherichia coli using P-NPP as substrate preincubated with enzyme for 30 mins by UV-spectrophotometric method; conditions: read-out: Ki(app)
# [9] = molecular target: T2, Tyrosine-protein phosphatase non-receptor type 1 (Homo sapiens); assay: Reversible inhibition of recombinant human PTP1B (1 to 322 residues) expressed in Escherichia coli using P-NPP as substrate after 10 mins by spectrophotometry
# [10] = molecular target: T2, Tyrosine-protein phosphatase non-receptor type 1 (Homo sapiens); assay: Inhibition of recombinant human PTP1B (1 to 322 residues) expressed in Escherichia coli assessed as forward rate constant for enzyme-inhibitor bound conformation using P-NPP as substrate incubated with enzyme for 30 mins by UV-spectrophotometric method
# Alpha glucosidase [11] = molecular target: T1, Alpha glucosidase; assay: Reversible inhibition of alpha-glucosidase (unknown origin) using PNP-G as substrate measured for 15 mins by spectrophotometry; type: protein assay
SMILES,Ki (Alpha glucosidase [1]),IC50 (Alpha glucosidase [2]),inhibition type (Lineweaver-Burk) [3],Ki [4],Mixed-type inhibition (qualitative) (Alpha glucosidase [5]),IC50 [6],Ki (Alpha glucosidase [7]),Ki [8],inhibition [9],K [10],inhibition (Alpha glucosidase [11]),inhibition (Alpha glucosidase [5])
CC(C)=CCc1c(O)c(CC=C(C)C)c2oc3ccc(O)cc3c(=O)c2c1O,19.2 µM,25.5 µM,Active,11.1 µM,Active,10.5 µM,–,–,–,–,–,–
C=C(C)C(O)CC/C(C)=C/COc1ccc2oc3cc(O)cc(O)c3c(=O)c2c1 (configuration not stated),13 µM,13.7 µM,Active,29.5 µM,Active,25.2 µM,–,–,–,–,–,–
COc1c(O)ccc2c(=O)c3c(O)cc4c(c3oc12)C(C)(C)C(CO)O4 (configuration not stated),33.9 µM,72.7 µM,Active,32.7 µM,Active,52.5 µM,–,–,–,–,–,–
C=C(C)C(O)Cc1c(O)c(C/C=C(\C)CCC=C(C)C)c2oc3ccc(O)cc3c(=O)c2c1O (configuration not stated),4.2 µM,4.8 µM,Active,2.1 to 2.4 µM,Active,2.4 µM,6.6 µM,2.4 µM,Active,50000 M⁻¹ s⁻¹,Active,–
CC(C)=CCC/C(C)=C/Cc1c(O)c(CC=C(C)C)c(O)c2c(=O)c3cc(O)ccc3oc12 [COCHINCHINONE A],13.4 µM,17.4 µM,Active,3.1 µM,Active,5.2 µM,–,–,–,–,–,–
COc1c(O)cc2oc3cc(O)c(CCC(C)(C)O)c(O)c3c(=O)c2c1CC=C(C)C,25.1 µM,30.7 µM,Active,22.9 µM,Active,24.1 µM,–,–,–,–,–,–
CC(C)=CCC/C(C)=C/COc1cc2oc3ccc(O)cc3c(=O)c2c(O)c1CC=C(C)C,27.2 µM,28.4 µM,Active,5.1 µM,Active,7.05 µM,–,–,–,–,–,–
CC(C)=CCc1c(O)cc2oc3cc(O)c(O)c(CC=C(C)C)c3c(=O)c2c1O,1.4 µM,1.7 µM,Active,2.7 µM,–,2.8 µM,–,–,–,–,–,Active
COc1c(O)cc2oc3cc(O)c(CC=C(C)C)c(O)c3c(=O)c2c1CC=C(C)C [MANGOSTIN],7.3 µM,5.7 µM,Active,3.2 µM,Active,5.5 µM,–,–,–,–,–,–
C=C(CCC=C(C)C)C(O)Cc1c(O)c(CC=C(C)C)c(O)c2c(=O)c3cc(O)ccc3oc12 (configuration not stated),8.2 µM,10.1 µM,Active,8.9 µM,Active,12.5 µM,–,–,–,–,–,–
CC(C)=CCCC(C)(O)C1Cc2c(c(CC=C(C)C)c(O)c3c(=O)c4cc(O)ccc4oc23)O1 (configuration not stated),9.9 µM,16.1 µM,Active,3.4 µM,Active,7.2 µM,–,–,–,–,–,–
CC(C)=CCC/C(C)=C/COc1ccc2oc3cc(O)cc(O)c3c(=O)c2c1,17.7 µM,20.6 µM,Active,19.9 µM,Active,35.1 µM,–,–,–,–,–,–
